The target in one test is 5-hydroxytryptamine receptor 1D (Homo sapiens, UniProt P28221). The test is described as follows: Displacement of [3H]5-CT from human 5-HT1D receptor expressed in HEKT cells after 90 mins by microbeta scintillation counting analysis. Format: cell-based.
Sequence of 5-hydroxytryptamine receptor 5A (P47898 whole entry): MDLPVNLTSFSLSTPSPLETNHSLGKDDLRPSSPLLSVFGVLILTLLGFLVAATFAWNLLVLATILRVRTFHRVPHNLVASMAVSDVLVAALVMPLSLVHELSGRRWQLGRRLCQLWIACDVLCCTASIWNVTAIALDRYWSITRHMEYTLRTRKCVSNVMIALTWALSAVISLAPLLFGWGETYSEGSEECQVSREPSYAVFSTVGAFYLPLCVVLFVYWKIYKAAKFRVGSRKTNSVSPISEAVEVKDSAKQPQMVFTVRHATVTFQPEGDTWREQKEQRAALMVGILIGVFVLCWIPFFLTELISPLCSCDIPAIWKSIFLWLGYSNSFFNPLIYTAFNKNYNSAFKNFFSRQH
T1 sequence (P34969 whole entry): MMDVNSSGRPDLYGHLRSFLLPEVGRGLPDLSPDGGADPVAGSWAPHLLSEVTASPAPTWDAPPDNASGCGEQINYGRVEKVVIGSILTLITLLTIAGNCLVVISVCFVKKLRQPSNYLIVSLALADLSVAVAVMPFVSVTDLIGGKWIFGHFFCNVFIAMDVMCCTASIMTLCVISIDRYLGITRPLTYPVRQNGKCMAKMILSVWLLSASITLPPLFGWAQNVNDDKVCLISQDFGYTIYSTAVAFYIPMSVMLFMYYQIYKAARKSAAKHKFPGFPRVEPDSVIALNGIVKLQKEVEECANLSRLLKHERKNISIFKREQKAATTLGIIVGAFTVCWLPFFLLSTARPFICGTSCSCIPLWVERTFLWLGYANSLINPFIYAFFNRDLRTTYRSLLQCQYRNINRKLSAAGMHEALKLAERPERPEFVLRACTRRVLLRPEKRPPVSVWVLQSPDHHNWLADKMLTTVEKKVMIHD
Sequence of 5-hydroxytryptamine receptor 1D (P28221 whole entry): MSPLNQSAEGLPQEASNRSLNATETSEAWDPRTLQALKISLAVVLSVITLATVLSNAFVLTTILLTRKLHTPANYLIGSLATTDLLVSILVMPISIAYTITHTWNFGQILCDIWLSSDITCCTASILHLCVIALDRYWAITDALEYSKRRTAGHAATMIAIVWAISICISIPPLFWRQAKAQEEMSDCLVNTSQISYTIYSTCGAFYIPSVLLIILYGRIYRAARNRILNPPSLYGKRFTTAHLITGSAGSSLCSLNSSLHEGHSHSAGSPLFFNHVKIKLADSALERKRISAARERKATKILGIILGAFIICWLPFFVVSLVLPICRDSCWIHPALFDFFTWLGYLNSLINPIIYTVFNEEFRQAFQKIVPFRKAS
`C[C@@H]1SC(c2ccccc2O)=N[C@H]1Cc1c[nH]cn1` (racemic) registered a Ki of 2000 nM.

Molecule `C[C@@H]1SC(c2ccccc2)=N[C@@H]1Cc1c[nH]cn1` (relative stereo) gave an inhibition constant (Ki) of 1600 nM. This Ki and that of the molecule before are within 1.5-fold of each other.

`C[C@@H]1SC(c2ccccc2)=N[C@H]1Cc1c[nH]cn1` (relative stereo) had a Ki of 800 nM.

For a further test, the target named is 5-hydroxytryptamine receptor 1E (Homo sapiens, UniProt P28566). Briefly: Displacement of [3H]5-HT from human 5-HT1E receptor expressed in HEK cells after 90 mins by microbeta scintillation counting analysis. Format: cell-based.
Sequence of 5-hydroxytryptamine receptor 1E (P28566 whole entry): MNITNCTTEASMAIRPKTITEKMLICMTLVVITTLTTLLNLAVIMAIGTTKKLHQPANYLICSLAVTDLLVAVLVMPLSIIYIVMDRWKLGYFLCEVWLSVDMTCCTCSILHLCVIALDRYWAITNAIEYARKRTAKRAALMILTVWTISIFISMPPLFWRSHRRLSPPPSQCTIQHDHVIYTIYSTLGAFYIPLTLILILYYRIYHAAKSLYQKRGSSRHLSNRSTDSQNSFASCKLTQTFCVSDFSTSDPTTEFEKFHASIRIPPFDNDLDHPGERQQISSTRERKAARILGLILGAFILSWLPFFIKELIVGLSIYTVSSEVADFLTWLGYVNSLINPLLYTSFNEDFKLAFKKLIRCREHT
`C[C@@H]1SC(c2ccccc2O)=N[C@H]1Cc1c[nH]cn1` (racemic) yielded a Ki of over 10000 nM.

Consider `C[C@@H]1SC(c2ccccc2)=N[C@@H]1Cc1c[nH]cn1` (relative stereo), for which affinity was put at a Ki of 4000 nM.

In the case of `C[C@@H]1SC(c2ccccc2)=N[C@H]1Cc1c[nH]cn1` (relative stereo), the Ki was over 10000 nM.

The target in another test is 5-hydroxytryptamine receptor 6 (Homo sapiens, UniProt P50406). The test is described as follows: Displacement of [3H]-LSD from human 5-HT6 receptor expressed in HEK cells after 90 mins by microbeta scintillation counting analysis. Type of test: cell-based.
Sequence of 5-hydroxytryptamine receptor 6 (P50406 whole entry): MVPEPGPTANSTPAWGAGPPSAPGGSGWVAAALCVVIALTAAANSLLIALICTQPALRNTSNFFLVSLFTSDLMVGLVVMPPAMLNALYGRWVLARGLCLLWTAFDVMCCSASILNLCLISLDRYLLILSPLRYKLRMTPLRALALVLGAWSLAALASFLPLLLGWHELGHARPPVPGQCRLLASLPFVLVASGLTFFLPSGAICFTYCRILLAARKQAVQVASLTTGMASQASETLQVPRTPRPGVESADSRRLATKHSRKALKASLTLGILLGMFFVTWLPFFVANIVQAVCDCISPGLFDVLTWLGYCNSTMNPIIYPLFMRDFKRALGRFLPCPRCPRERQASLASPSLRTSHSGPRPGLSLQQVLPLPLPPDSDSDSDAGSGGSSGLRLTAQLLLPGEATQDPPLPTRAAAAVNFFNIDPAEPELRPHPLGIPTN
Take `C[C@@H]1SC(c2ccccc2O)=N[C@H]1Cc1c[nH]cn1` (racemic): the Ki worked out at 2600 nM. This lies in the single-digit micromolar range.

With `C[C@@H]1SC(c2ccccc2)=N[C@@H]1Cc1c[nH]cn1` (relative stereo), the Ki is over 10000 nM.

On to `C[C@@H]1SC(c2ccccc2)=N[C@H]1Cc1c[nH]cn1` (relative stereo), for which the Ki is over 10000 nM.

A further test has as its target T1, 5-hydroxytryptamine receptor 7 (Homo sapiens, UniProt P34969). The test is described as follows: Displacement of [3H]-LSD from human 5-HT7A receptor expressed in HEK cells after 90 mins by microbeta scintillation counting analysis. Type of test: cell-based.
`C[C@@H]1SC(c2ccccc2O)=N[C@H]1Cc1c[nH]cn1` (racemic) displayed a Ki of 3600 nM. This counts as single-digit micromolar.

Turning to `C[C@@H]1SC(c2ccccc2)=N[C@@H]1Cc1c[nH]cn1` (relative stereo), the Ki amounted to 3300 nM.

`C[C@@H]1SC(c2ccccc2)=N[C@H]1Cc1c[nH]cn1` (relative stereo) came in with a Ki of over 10000 nM.

For another test, the target named is T2, 5-hydroxytryptamine receptor 3A (Homo sapiens, UniProt P46098).
T2 sequence (P46098 whole entry): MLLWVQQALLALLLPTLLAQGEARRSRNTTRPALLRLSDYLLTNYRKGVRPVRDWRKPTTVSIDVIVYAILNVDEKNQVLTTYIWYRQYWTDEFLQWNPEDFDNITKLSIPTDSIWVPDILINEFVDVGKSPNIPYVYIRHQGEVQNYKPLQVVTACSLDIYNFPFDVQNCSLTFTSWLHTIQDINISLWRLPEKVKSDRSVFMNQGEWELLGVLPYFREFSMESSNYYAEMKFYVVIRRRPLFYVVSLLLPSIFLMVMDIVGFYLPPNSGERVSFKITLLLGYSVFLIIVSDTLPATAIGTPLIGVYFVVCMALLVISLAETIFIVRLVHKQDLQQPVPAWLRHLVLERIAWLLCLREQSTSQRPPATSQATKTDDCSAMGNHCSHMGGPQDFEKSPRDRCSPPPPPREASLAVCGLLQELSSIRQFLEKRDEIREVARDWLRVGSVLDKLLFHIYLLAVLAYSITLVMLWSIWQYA
Briefly: Displacement of [3H]-GR65630 from human 5-HT3 receptor expressed in HEKT cells after 90 mins by microbeta scintillation counting analysis. Format: cell-based.
Molecule `C[C@@H]1SC(c2ccccc2O)=N[C@H]1Cc1c[nH]cn1` (racemic) had a Ki of 240 nM.

As for `C[C@@H]1SC(c2ccccc2)=N[C@@H]1Cc1c[nH]cn1` (relative stereo), the affinity corresponds to a Ki of 77 nM.

Consider `C[C@@H]1SC(c2ccccc2)=N[C@H]1Cc1c[nH]cn1` (relative stereo), for which the affinity, expressed as Ki, was 150 nM. This Ki is about 1.9-fold higher than that of the molecule before.

In the next test the target is T3, 5-hydroxytryptamine receptor 2B (Homo sapiens, UniProt P41595). Briefly: Antagonist activity at 5-HT2B receptor (unknown origin) by calcium release assay. Format: functional.
T3 sequence (P41595 whole entry): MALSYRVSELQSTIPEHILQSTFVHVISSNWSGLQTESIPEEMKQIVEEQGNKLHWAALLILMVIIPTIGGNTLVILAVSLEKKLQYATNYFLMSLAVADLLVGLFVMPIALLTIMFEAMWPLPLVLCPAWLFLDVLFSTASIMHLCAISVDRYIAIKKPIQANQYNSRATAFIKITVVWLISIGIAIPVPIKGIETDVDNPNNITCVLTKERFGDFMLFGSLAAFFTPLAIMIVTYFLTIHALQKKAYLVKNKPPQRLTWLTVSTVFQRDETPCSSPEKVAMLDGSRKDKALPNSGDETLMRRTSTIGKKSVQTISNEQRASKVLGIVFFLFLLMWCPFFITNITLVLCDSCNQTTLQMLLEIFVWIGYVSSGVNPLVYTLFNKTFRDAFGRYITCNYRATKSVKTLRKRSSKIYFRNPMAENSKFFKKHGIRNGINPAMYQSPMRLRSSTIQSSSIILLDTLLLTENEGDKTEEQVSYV
Take `C[C@@H]1SC(c2ccccc2O)=N[C@H]1Cc1c[nH]cn1` (racemic): the IC50 was found to be 800 nM.

For the molecule `C[C@@H]1SC(c2ccccc2)=N[C@@H]1Cc1c[nH]cn1` (relative stereo), the IC50 was over 10000 nM.

As for `C[C@@H]1SC(c2ccccc2)=N[C@H]1Cc1c[nH]cn1` (relative stereo), the IC50 was determined as 10000 nM.

The target of a further test is T4, 5-hydroxytryptamine receptor 1A (Homo sapiens, UniProt P08908).
T4 sequence (P08908 whole entry): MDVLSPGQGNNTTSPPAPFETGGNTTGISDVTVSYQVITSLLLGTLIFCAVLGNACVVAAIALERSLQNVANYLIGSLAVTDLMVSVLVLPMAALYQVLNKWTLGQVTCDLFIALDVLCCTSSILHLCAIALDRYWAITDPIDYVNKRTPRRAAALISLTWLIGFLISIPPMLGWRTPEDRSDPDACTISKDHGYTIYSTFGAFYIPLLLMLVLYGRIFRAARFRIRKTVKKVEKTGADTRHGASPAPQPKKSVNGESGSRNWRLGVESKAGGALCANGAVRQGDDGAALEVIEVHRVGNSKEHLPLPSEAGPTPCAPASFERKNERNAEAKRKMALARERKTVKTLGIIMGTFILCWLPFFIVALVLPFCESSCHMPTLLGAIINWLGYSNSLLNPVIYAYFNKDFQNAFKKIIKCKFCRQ
The test is described as follows: Antagonist activity at 5-HT1A receptor (unknown origin) by Tango assay. Format: functional.
The molecule `C[C@@H]1SC(c2ccccc2O)=N[C@H]1Cc1c[nH]cn1` (racemic) returned an IC50 of over 10000 nM.

For the molecule `C[C@@H]1SC(c2ccccc2)=N[C@@H]1Cc1c[nH]cn1` (relative stereo), the IC50 is over 10000 nM.

On to `C[C@@H]1SC(c2ccccc2)=N[C@H]1Cc1c[nH]cn1` (relative stereo), for which the IC50 was over 10000 nM.

The target in the next test is T5, 5-hydroxytryptamine receptor 2C (Homo sapiens, UniProt P28335).
T5 sequence (P28335 whole entry): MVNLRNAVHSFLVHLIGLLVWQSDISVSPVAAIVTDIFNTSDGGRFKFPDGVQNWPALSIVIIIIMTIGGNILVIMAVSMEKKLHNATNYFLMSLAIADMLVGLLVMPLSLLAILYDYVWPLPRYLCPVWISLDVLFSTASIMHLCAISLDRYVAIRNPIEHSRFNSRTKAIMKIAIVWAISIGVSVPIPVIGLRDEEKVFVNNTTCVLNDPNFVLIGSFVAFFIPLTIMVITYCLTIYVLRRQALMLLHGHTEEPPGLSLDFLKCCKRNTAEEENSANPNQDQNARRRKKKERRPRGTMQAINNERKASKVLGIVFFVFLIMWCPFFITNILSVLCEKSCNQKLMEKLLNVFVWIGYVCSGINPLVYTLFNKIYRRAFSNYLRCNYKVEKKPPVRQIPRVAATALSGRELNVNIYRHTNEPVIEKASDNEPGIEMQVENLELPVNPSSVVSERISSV
Briefly: Displacement of [3H]-Mesulergine from human 5-HT2C receptor expressed in HEKT cells after 90 mins by microbeta scintillation counting analysis. Format: cell-based.
`C[C@@H]1SC(c2ccccc2O)=N[C@H]1Cc1c[nH]cn1` (racemic) yielded a Ki of 140 nM.

`C[C@@H]1SC(c2ccccc2)=N[C@@H]1Cc1c[nH]cn1` (relative stereo) showed a Ki of 750 nM. This Ki is about 5.4-fold higher than that of the molecule before.

Take `C[C@@H]1SC(c2ccccc2)=N[C@H]1Cc1c[nH]cn1` (relative stereo): the affinity corresponds to a Ki of 1200 nM. Against the preceding molecule, the Ki is about 1.6-fold higher.

Another test concerns the target 5-hydroxytryptamine receptor 5A (Homo sapiens, UniProt P47898). Briefly: Displacement of [3H]-LSD from human 5-HT5A receptor expressed in Flp-In CHO cells after 90 mins by microbeta scintillation counting analysis. Type of test: cell-based.
For `C[C@@H]1SC(c2ccccc2O)=N[C@H]1Cc1c[nH]cn1` (racemic), the Ki was over 10000 nM.

Turning to `C[C@@H]1SC(c2ccccc2)=N[C@@H]1Cc1c[nH]cn1` (relative stereo), the affinity corresponds to a Ki of 6800 nM.

`C[C@@H]1SC(c2ccccc2)=N[C@H]1Cc1c[nH]cn1` (relative stereo) gave a Ki of over 10000 nM.

Another test deals with T5, 5-hydroxytryptamine receptor 2C. Briefly: Antagonist activity at 5-HT2C receptor (unknown origin) by calcium release assay. Format: functional.
As for `C[C@@H]1SC(c2ccccc2O)=N[C@H]1Cc1c[nH]cn1` (racemic), the IC50 is 6800 nM.

The next test has as its target T1, 5-hydroxytryptamine receptor 7. Briefly: Antagonist activity at 5-HT7A receptor (unknown origin) by Tango assay.
Molecule `C[C@@H]1SC(c2ccccc2)=N[C@@H]1Cc1c[nH]cn1` (relative stereo) returned an IC50 of over 10000 nM.

Turning to `C[C@@H]1SC(c2ccccc2)=N[C@H]1Cc1c[nH]cn1` (relative stereo), the IC50 was over 10000 nM.

A further test has as its target T3, 5-hydroxytryptamine receptor 2B. The test is described as follows: Displacement of [3H]-LSD from human 5-HT2B receptor expressed in HEK cells after 90 mins by microbeta scintillation counting analysis. Type of test: cell-based.
For the molecule `C[C@@H]1SC(c2ccccc2O)=N[C@H]1Cc1c[nH]cn1` (racemic), the Ki came to 47 nM.

The molecule `C[C@@H]1SC(c2ccccc2)=N[C@@H]1Cc1c[nH]cn1` (relative stereo) yielded a Ki of 690 nM.

Take `C[C@@H]1SC(c2ccccc2)=N[C@H]1Cc1c[nH]cn1` (relative stereo): the Ki was determined as 380 nM.

The target of another test is 5-hydroxytryptamine receptor 2A (Homo sapiens, UniProt P28223). The test is described as follows: Displacement of [3H]Ketanserin from 5-HT2A (unknown origin) receptor after 90 mins by microbeta scintillation counting analysis.
Sequence of 5-hydroxytryptamine receptor 2A (P28223 whole entry): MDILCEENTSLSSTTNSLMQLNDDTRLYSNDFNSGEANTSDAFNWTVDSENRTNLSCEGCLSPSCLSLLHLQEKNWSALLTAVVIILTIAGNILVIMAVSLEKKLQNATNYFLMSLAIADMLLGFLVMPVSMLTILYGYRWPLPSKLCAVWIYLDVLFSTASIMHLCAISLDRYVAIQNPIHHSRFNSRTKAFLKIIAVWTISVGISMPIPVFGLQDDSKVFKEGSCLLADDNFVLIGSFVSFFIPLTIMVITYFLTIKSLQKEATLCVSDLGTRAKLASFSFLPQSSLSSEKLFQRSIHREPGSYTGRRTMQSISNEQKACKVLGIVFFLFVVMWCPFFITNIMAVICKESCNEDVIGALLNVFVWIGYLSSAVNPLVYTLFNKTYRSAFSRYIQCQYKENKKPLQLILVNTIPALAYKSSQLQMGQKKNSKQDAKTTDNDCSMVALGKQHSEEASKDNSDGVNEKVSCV
Take `C[C@@H]1SC(c2ccccc2O)=N[C@H]1Cc1c[nH]cn1` (racemic): the inhibition constant Ki was determined as 1400 nM. In other words, the single-digit micromolar range.

Regarding `C[C@@H]1SC(c2ccccc2)=N[C@H]1Cc1c[nH]cn1` (relative stereo), the Ki was 5800 nM.

Values taken from ChEMBL document CHEMBL4190286, “Modulating the Serotonin Receptor Spectrum of Pulicatin Natural Products” (J Nat Prod, 2017).
